Key:
[1] = Ratio of inhibitor constant for Met substrate site of methionine adenosyl transferase and ATP substrate site of M-T variant methionine adenosyl transferase
[2] = target: S-adenosylmethionine synthase isoform type-2 (Rattus norvegicus) (UniProt P18298); assay: Inhibition constants against Met (L-methionine)P substrate site of M-T (Novikoff Ascitic Hepatoma form) variant of rat Methionine adenosyltransferase
[3] = target: S-adenosylmethionine synthase isoform type-2 (Rattus norvegicus) (UniProt P18298); assay: Inhibition constants against ATP substrate site of M-T (Novikoff Ascitic Hepatoma form) variant of rat Methionine adenosyltransferase
[4] = Ratio of inhibitor constant for ATP substrate site of methionine adenosyl transferase and ATP substrate site of M-T variant methionine adenosyl transferase
[5] = target: S-adenosylmethionine synthase isoform type-2 (Rattus norvegicus) (UniProt P18298); assay: Inhibition constants with Met (L-methionine) substrate site of M-2 (kidney form) variant of rat Methionine adenosyltransferase
[6] = Ratio of inhibitor constant for Met substrate site of methionine adenosyl transferase and ATP substrate site of M-2 variant methionine adenosyl transferase
[7] = target: S-adenosylmethionine synthase isoform type-2 (Rattus norvegicus) (UniProt P18298); assay: Inhibition constants against ATP substrate site of M-2 (kidney form) variant of rat Methionine adenosyltransferase
[8] = Ratio of inhibitor constant for ATP substrate site of methionine adenosyl transferase and ATP substrate site of M-2 variant methionine adenosyl transferase

Sequence of S-adenosylmethionine synthase isoform type-2 (Rattus norvegicus) (P18298 whole entry, looked up, stated change not applied, canonical isoform): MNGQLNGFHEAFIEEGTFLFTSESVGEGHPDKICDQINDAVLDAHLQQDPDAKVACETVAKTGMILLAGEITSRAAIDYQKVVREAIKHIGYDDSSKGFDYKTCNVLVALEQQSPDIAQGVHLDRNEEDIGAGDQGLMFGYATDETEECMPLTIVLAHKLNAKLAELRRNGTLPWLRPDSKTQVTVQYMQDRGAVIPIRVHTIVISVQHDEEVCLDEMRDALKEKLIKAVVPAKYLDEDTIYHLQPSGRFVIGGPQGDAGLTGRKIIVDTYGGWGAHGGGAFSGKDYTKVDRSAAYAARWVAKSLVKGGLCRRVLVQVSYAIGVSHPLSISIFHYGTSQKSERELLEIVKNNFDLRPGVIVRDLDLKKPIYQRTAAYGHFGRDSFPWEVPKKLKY

Row | Ratio [1] | Ki [2] [nM] | Ki [3] [nM] | Ratio [4] | Ki [5] [nM] | Ratio [6] | Ki [7] [nM] | Ratio [8] | Compound
1 | 22 | 740 | 110 | 1270 | 2900 | 1.7 | 120 | 1170 | CCCCSc1ncnc2c1ncn2[C@@H]1O[C@H]([C@H](CSCC[C@H](N)C(=O)O)OP(=O)(O)OP(=O)(O)NP(=O)(O)O)[C@@H](O)[C@H]1O
2 |  |  | 100000 | 1.4 |  |  | 310000 | 0.45 | CCCCSc1ncnc2c1ncn2[C@@H]1O[C@H](COP(=O)(O)OP(=O)(O)OP(=O)(O)O)[C@@H](O)[C@H]1O
3 | 22 | 670 | 210 | 670 | 650 | 7.7 | 130 | 1080 | Nc1ncnc2c1ncn2[C@@H]1O[C@H]([C@H](CSCCC(N)C(=O)O)OP(=O)(O)OP(=O)(O)NP(=O)(O)O)[C@@H](O)[C@H]1O (stereo not given in full)

Source: ChEMBL document CHEMBL1125171, “Approaches to isozyme-specific inhibitors. 17. Attachment of a selectivity-inducing substituent to a multisubstrate adduct. Implications for facilitated design of potent, isozyme-selective inhibitors” (J Med Chem, 1990)
